Several values for one entry are separate records, joined by “and”; a condition that tells them apart may be missing. Identical values can stand only once.
How the values were obtained:
[1] = tested on: rs149354567 (CDRT8/PMP22, chromosome 17); rs10811106 (SAXO1, chromosome 9); experiment: COLCOT pharmacogenomic GWAS and Cox / recurrent-event analyses of the primary efficacy end point by genotype; assay type: in vivo, human; settings: for Primary end point, HR (95% CI) for rs149354567 minor (GA) versus major (G) allele: Cox, controlling for age, sex, C1-C10; for Recurrent primary end point events, Hazard Ratio (95% CI), Andersen-Gill model / Recurrent primary end point events, Hazard Ratio (95% CI), WLW model K = 2, 1st Event / Recurrent primary end point events, Hazard Ratio (95% CI), WLW model K = 2, 2nd Event / Recurrent primary end point events, Hazard Ratio (95% CI), WLW model K = 2, Average / Recurrent primary end point events, Rate Ratio (95% CI), Negative binomial model: colchicine vs placebo
Excerpt: FIG. 3 is a Manhattan plot of a Genome-wide Association Study (GWAS) with common single-nucleotide polymorphisms (SNPs) with minor allele frequency (MAF)≥5% for the primary efficacy end point using a survival analysis (coxph) regression with all patients in colchicine treatment arm (compliant ITT pgx population) in the COLCOT cohort, controlling for age, sex, principal components (C1-C10) with a threshold of 5.000E-08 (4,462,492 variants and 702 samples).
FIG. 4 is a plot of SNPs located on chromosome 17 (from 14,623,118 to 15,623,118 bp) for the primary efficacy end point using a survival analysis (coxph) regression with all patients in colchicine treatment arm (compliant ITT pgx population) in the COLCOT cohort, controlling for age, sex, principal components (C1-C10) with a threshold of 5.000E-08 (4,462,492 variants and 702 samples).
FIG. 8 is a Manhattan plot of GWAS with common SNPs with MAF≥5% for the primary efficacy endpoint using a survival analysis (coxph) regression with male patients in colchicine treatment arm (compliant ITT pgx population) in the COLCOT cohort, controlling for age, sex specific principal components (SC1-SC10) with a threshold of 5.000E-08 (4,455,743 variants and 576 samples).
FIG. 9 is a plot of single-nucleotide polymorphisms (SNPs) located on chromosome 9 (from 18,537,533 to 19,537,533 bp) for primary efficacy endpoint using a survival analysis (coxph) regression with male patients in colchicine treatment arm (compliant ITT pgx population) in the COLCOT cohort, controlling for age, sex specific principal components (SC1-SC10) with a threshold of 5.000E-08 (4,455,743 variants and 576 samples).
A Genome-wide Association Study (GWAS) was performed for the COLCOT primary efficacy end points. The primary efficacy endpoints were, the earliest occurrence of: cardiovascular death, resuscitated cardiac arrest, acute myocardial infarction, stroke, or urgent hospitalization for angina requiring coronary revascularization.
A plot of SNPs located on chromosome 17 (from 14,623,118 to 15,623, 118 bp) for the primary efficacy end point using a survival analysis (coxph) regression with all patients in colchicine treatment arm (compliant ITT pgx population) in the COLCOT cohort is shown in FIG. 4. Within this region, SNP rs149354567 was identified for further analysis (Table 10). SNP rs149354567 is intergenic for the CDR8T (CMT1A duplicated region transcript 8) gene and the PMP22 (peripheral myelin protein 22) gene.
A Cox statistical analysis for the primary endpoint comparing the chromosome 17 SNP rs149354567 minor versus major alleles by treatment arms is shown in Table 11 below.
A Cox statistical analysis for the primary end point comparing colchicine versus placebo for SNP rs149354567 genotypes is shown in Table 12 below.
The above analysis is based on time to first event among the components of the primary end point. Three other analyses were also considered to account for multiple events within subjects. These analyses make use of all events, including the ones that occur after the first. The Wei, Lin, and Weissfeld (WLW) marginal model, the Andersen and Gill (AG) model, and the negative binomial model were used.
A further region of the genome with a genetic variant, rs10811106, that, in males, is associated with efficacy of colchicine in the prevention of cardiovascular events in participants recruited within 30 days of a myocardial infarction (acute coronary syndrome) was identified using similar statistical analyses (FIG. 8). SNP rs10811106 is intronic in the SAXO1 (stabilizer of axonemal microtubules 1) gene (FIG. 9). SNP rs10811106 was associated with the primary efficacy endpoint of COLCOT (composite of cardiovascular death, resuscitated cardiac arrest, myocardial infarction, stroke, or urgent hospitalization for angina requiring coronary revascularization) in the colchicine treatment arm (P=5.8×10^−8).

[2] = tested on: patients with stable coronary disease; settings: LoDoCo, 0.5 mg once daily, 532 patients, not placebo-controlled; cited from earlier work
[3] = colchicine arm N=2, rs149354567 genotype GA/GA
[4] = colchicine arm N=102, rs149354567 genotype G/GA
[5] = colchicine arm N=585, rs149354567 genotype G/G
[6] = colchicine arm N=689, all rs149354567 genotypes
[7] = rs10811106 chr 9, EA T vs NEA C, N 564, 30 events

SMILES: COc1cc2c(c(OC)c1OC)-c1ccc(OC)c(=O)cc1[C@@H](NC(C)=O)CC2 [Colchicine, colchicine]
- fewer cardiovascular events with colchicine compared to placebo ([1]; carriers of genotype G-/G- at rs149354567): 40%
- Recurrent primary end point events, Hazard Ratio (95% CI) for one unit increase of rs149354567 dosage, Andersen-Gill model ([1]; colchicine arm): 4.55 (2.45; 8.46)
- Recurrent primary end point events, Hazard Ratio (95% CI) for one unit increase of rs149354567 dosage, WLW model K = 2, 1st Event ([1]; colchicine arm): 5.30 (2.90; 9.70)
- Recurrent primary end point events, Hazard Ratio (95% CI) for one unit increase of rs149354567 dosage, WLW model K = 2, 2nd Event ([1]; colchicine arm): 3.96 (0.99; 15.80)
- Recurrent primary end point events, Hazard Ratio (95% CI) for one unit increase of rs149354567 dosage, WLW model K = 2, Average ([1]; colchicine arm): 5.28 (2.88; 9.66)
- Recurrent primary end point events, Rate Ratio (95% CI) for one unit increase of rs149354567 dosage, Negative binomial model ([1]; colchicine arm): 4.58 (2.40; 8.74)
- Primary end point events rate per 100 subject-months ([1]; colchicine arm N=2, genotype GA/GA): 0 per 100 subject-months
- Total number of primary end point events ([1]; colchicine arm N=2, genotype GA/GA, 24 follow-up months): 0
- Primary end point, patients with events (at least one event) ([1]; colchicine arm N=2, rs149354567 GA/GA): 0
- Number of subjects with 0 primary end point events [1, 3]: 2
- Number of subjects with 1 primary end point event [1, 3]: 0
- Number of subjects with 2 primary end point events [1, 3]: 0
- Number of subjects with 3 primary end point events [1, 3]: 0
- Number of subjects with 4 primary end point events [1, 3]: 0
- Primary end point events rate per 100 subject-months ([1]; colchicine arm N=102, genotype G/GA): 0.71 per 100 subject-months
- Total number of primary end point events ([1]; colchicine arm N=102, genotype G/GA, 2678 follow-up months): 19
- Primary end point, patients with events (at least one event) ([1]; colchicine arm N=102, rs149354567 G−/GA): 17
- Number of subjects with 0 primary end point events [1, 4]: 85
- Number of subjects with 1 primary end point event [1, 4]: 15
- Number of subjects with 2 primary end point events [1, 4]: 2
- Number of subjects with 3 primary end point events [1, 4]: 0
- Number of subjects with 4 primary end point events [1, 4]: 0
- Primary end point, patients with events ([1]; colchicine arm N=104, rs149354567 G−/GA+GA/GA): 17
- Primary end point events rate per 100 subject-months ([1]; colchicine arm N=585, genotype G/G): 0.16 per 100 subject-months
- Total number of primary end point events ([1]; colchicine arm N=585, genotype G/G, 14370 follow-up months): 23
- Primary end point, patients with events (at least one event) ([1]; colchicine arm N=585, rs149354567 G−/G−): 20
- Number of subjects with 0 primary end point events [1, 5]: 565
- Number of subjects with 1 primary end point event [1, 5]: 17
- Number of subjects with 2 primary end point events [1, 5]: 3
- Number of subjects with 3 primary end point events [1, 5]: 0
- Number of subjects with 4 primary end point events [1, 5]: 0
- Number of subjects with 0 primary end point events [1, 6]: 652
- Number of subjects with 1 primary end point event [1, 6]: 32
- Number of subjects with 2 primary end point events [1, 6]: 5
- Number of subjects with 3 primary end point events [1, 6]: 0
- Number of subjects with 4 primary end point events [1, 6]: 0
- Primary end point events rate per 100 subject-months [1, 6]: 0.25 per 100 subject-months
- Total number of primary end point events ([1]; colchicine arm N=689, all rs149354567 genotypes, 17072 follow-up months): 42
- Primary end point, patients with events (at least one event) ([1]; colchicine arm N=689, all rs149354567 genotypes, compliant ITT pgx population): 37
- Primary end point, % of events ([1]; colchicine arm, all rs149354567 genotypes): 5.4%
- Primary end point, hr per effect allele, rs75780450 (T vs C) ([1]; colchicine arm, males + females, compliant ITT pgx population): 4.611
- Primary end point, hr per effect allele, rs1854156 (C vs G) ([1]; colchicine arm, males only): 5.104
- Primary end point, hr per effect allele, rs10118790 (A vs G) ([1]; colchicine arm, males only): 5.05
- Primary end point, hr per effect allele, rs10811106 (T vs C) ([1]; colchicine arm, males only): 5.503
- Primary end point, hr per effect allele, rs10963895 (A vs G) ([1]; colchicine arm, males only): 4.191
- Primary end point, hr per effect allele, rs28733572 (C vs G) ([1]; colchicine arm, males only): 5.043
- Primary end point, % of events ([1]; colchicine arm, rs149354567 G−/GA): 16.7%
- Primary end point, % of events ([1]; colchicine arm, rs149354567 G−/GA+GA/GA): 16.3%
- Primary end point, % of events ([1]; colchicine arm, rs149354567 G−/G−): 3.4%
- Primary end point, HR (95% CI) for rs149354567 minor (GA) versus major (G) allele ([1]; colchicine arm, compliant ITT pgx population): 5.30 (2.84-9.89)
- Primary end point, HR (95% CI) for rs149354567 minor (GA) versus major (G) allele ([1]; colchicine arm, compliant ITT pgx population, listed as colchicine): 5.30 and 5.299
- Recurrent primary end point events, Hazard Ratio (95% CI), Andersen-Gill model ([1]; all rs149354567 genotypes): 0.61 (0.39; 0.96)
- Recurrent primary end point events, Hazard Ratio (95% CI), WLW model K = 2, 1st Event ([1]; all rs149354567 genotypes): 0.82 (0.53; 1.28)
- Recurrent primary end point events, Hazard Ratio (95% CI), WLW model K = 2, 2nd Event ([1]; all rs149354567 genotypes): 0.28 (0.10; 0.73)
- Recurrent primary end point events, Hazard Ratio (95% CI), WLW model K = 2, Average ([1]; all rs149354567 genotypes): 0.80 (0.52; 1.25)
- Recurrent primary end point events, Rate Ratio (95% CI), Negative binomial model ([1]; all rs149354567 genotypes): 0.57 (0.34; 0.94)
- Recurrent primary end point events, Hazard Ratio (95% CI), Andersen-Gill model ([1]; rs149354567 genotype G/G): 0.48 (0.27; 0.85)
- Recurrent primary end point events, Hazard Ratio (95% CI), WLW model K = 2, 1st Event ([1]; rs149354567 genotype G/G): 0.60 (0.34; 1.04)
- Recurrent primary end point events, Hazard Ratio (95% CI), WLW model K = 2, 2nd Event ([1]; rs149354567 genotype G/G): 0.25 (0.07; 0.85)
- Recurrent primary end point events, Hazard Ratio (95% CI), WLW model K = 2, Average ([1]; rs149354567 genotype G/G): 0.59 (0.34; 1.03)
- Recurrent primary end point events, Rate Ratio (95% CI), Negative binomial model ([1]; rs149354567 genotype G/G): 0.43 (0.23; 0.82)
- Recurrent primary end point events, Hazard Ratio (95% CI), Andersen-Gill model ([1]; rs149354567 genotype G/G, listed as colchicine): 0.48
- Recurrent primary end point events, Hazard Ratio (95% CI), Andersen-Gill model ([1]; rs149354567 genotype G/GA): 0.84 (0.34; 2.11)
- Recurrent primary end point events, Hazard Ratio (95% CI), WLW model K = 2, 1st Event ([1]; rs149354567 genotype G/GA): 1.62 (0.69; 3.79)
- Recurrent primary end point events, Hazard Ratio (95% CI), WLW model K = 2, 2nd Event ([1]; rs149354567 genotype G/GA): 0.17 (0.03; 1.02)
- Recurrent primary end point events, Hazard Ratio (95% CI), WLW model K = 2, Average ([1]; rs149354567 genotype G/GA): 1.35 (0.58; 3.12)
- Recurrent primary end point events, Rate Ratio (95% CI), Negative binomial model ([1]; rs149354567 genotype G/GA): 0.91 (0.39; 2.08)
- fewer cardiovascular events with colchicine compared to placebo ([1]; males, genotype C/C at rs10811106): 54%
- Primary end point in males only, HR (95% CI) colchicine versus placebo ([1]; rs10811106 CT (16%), N total 182): 2.49 (0.92-6.75)
- Coefficient, genetic association, chromosome 9 locus (primary efficacy end point) [1, 7]: 1.705
- HR (hazard ratio), genetic association, chromosome 9 locus (primary efficacy end point) [1, 7]: 5.50
- cardiovascular events versus no colchicine (in words) [2]: fewer cardiovascular events than those not receiving colchicine
